The source of these data is ChEMBL document CHEMBL1681726, “Discovery of orally available tetrahydroquinoline-based glucocorticoid receptor agonists” (Bioorg Med Chem Lett, 2011).

A value given as a limit tells only on which side of the number the result lay.

Series [1] is described as follows: Selectivity ratio of Ki for GR to Ki for MR.
The nature of series [2]: Cmax in Sprague-Dawley rat at 30 mg/kg, po. The format is ADME, organism-based. Set-up: dose 30 mg/kg, route oral. The conditions noted are these: in vivo.
Series [3] is described as follows: Apparent half life in Sprague-Dawley rat at 30 mg/kg, po. The format is ADME, organism-based. On the set-up: dose 30 mg/kg, route oral. The conditions noted are these: in vivo.
A further series has as its system Mus musculus. Description: Antiinflammatory activity in po dosed mouse assessed as carrageenan-induced hind paw edema measured after 3 hrs post dose. The format is functional.
Series [4] concerns the target T1, Glucocorticoid receptor (Homo sapiens, UniProt P04150).
T1 sequence (P04150 whole entry): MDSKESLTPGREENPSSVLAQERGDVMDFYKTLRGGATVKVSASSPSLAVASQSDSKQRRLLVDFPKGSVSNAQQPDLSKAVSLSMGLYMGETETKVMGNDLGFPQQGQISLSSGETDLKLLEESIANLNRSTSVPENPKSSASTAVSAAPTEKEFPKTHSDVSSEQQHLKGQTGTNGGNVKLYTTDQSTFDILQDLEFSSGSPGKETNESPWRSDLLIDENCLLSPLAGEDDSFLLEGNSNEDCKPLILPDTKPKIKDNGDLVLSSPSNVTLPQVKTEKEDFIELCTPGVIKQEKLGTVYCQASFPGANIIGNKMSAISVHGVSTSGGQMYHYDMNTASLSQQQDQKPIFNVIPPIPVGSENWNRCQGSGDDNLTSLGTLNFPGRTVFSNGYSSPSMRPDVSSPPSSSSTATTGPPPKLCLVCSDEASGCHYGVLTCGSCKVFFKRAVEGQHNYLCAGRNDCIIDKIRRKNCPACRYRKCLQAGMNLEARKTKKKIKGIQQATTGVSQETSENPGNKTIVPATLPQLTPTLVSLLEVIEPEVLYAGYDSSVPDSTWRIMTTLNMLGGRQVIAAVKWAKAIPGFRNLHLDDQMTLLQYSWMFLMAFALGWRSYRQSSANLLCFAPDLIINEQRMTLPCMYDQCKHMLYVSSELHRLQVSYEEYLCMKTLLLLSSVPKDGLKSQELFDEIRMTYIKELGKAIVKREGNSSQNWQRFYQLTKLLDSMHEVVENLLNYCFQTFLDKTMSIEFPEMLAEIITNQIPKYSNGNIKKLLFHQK
Put plainly: Agonist activity at GR expressed in IL-1beta- and TNFalpha-stimulated HepG2 cells assessed as inhibition of NFKB- or AP-1 mediated E-selectin transcription by luciferase reporter gene assay relative to Dexamethasone. Format: functional, cell-based. On the technique in general: A reporter such as luciferase makes a cellular process visible.

The nature of series [5]: Selectivity ratio of Ki for GR to Ki for PR.
Series [6] addresses T1, Glucocorticoid receptor. Put plainly: Agonist activity at human GR expressed in NHDF cells assessed as inhibition of IL-6 production by ELISA relative to Dexamethasone. The format is functional, cell-based.
Series [7] is described as follows: Metabolic stability in human liver microsomes by HPLC-MS/MS. The format is ADME, Microsome. For orientation: Liver microsomes are a subcellular fraction often used to study metabolism.
The target of series [8] is T1, Glucocorticoid receptor. Description: Displacement of radiolabeled Dexamethasone from GR.
Series [9] in a line: Metabolic stability in CD-1 […] liver microsomes by HPLC-MS/MS. Format: ADME, Microsome. The conditions noted are these: CD-1, liver microsomes.
Series [10] deals with T1, Glucocorticoid receptor. Put plainly: Agonist activity at GR expressed in african green monkey CV1 cells transfected with luciferase gene linked to MMTV promoter assessed as induction of luciferase transactivation activity relative to Dexamethasone. Format: functional, cell-based, CV-1.

By Cmax is commonly meant the highest concentration seen after dosing. As usually defined, the half-life is how long it takes for the measured level to halve. As usually defined, the ED50 is the dose that gives a 50% effect, or the effect in half of the subjects. The term IC50 denotes the concentration needed to halve the response being measured. One may read the Ki as a dissociation constant, usually derived from enzyme kinetics or from competition with a known ligand. For orientation: EC50 means the concentration at which the effect is half-maximal. For `C[C@H]1c2c(cc(F)c(-c3cccc4cc[nH]c34)c2F)NC(C)(C)[C@@H]1O` (racemic), the Ratio Ki in series [1] and in series [5] was over 500 in each case. The Cmax in series [2] came out at 3600 ng/mL. Besides, the half-life is 192 min in [3], 48 min in [7] and 30 min in [9]. Besides, the ED50 with Mus musculus was found to be 6.6 mg/kg. In addition, the values for the half-maximal inhibitory concentration (IC50) on Glucocorticoid receptor [4] and on Glucocorticoid receptor [6] were 1.5 nM and 11 nM, respectively. This molecule also displayed an inhibitory constant (Ki) at Glucocorticoid receptor [8] of 2.5 nM. Besides, on Glucocorticoid receptor [10], the EC50 was 0.6 nM.
